Source: article PMC10901892 (Scientific Reports, 2024)
pEC50: −log10 of the molar value. Entries after “also recorded” stand apart in the source; their conditions may differ.

Legend:
[1] = system: isolated mouse liver mitochondria; type: biochemical; details: for pEC50: read-out: EC50 of uncoupling activity
[2] = target: T1, mitochondrial electron transport chain (complex II) (Mus musculus, UniProt Q8K2B3+Q9CQA3+Q9CXV1+Q9CZB0); type: biochemical
T1 construct: Mouse liver mitochondria were isolated by homogenization and differential centrifugation; from tissue; host or cells: liver of male C57BL/6JINV (Jax) mice; isolated mitochondria, intact or disrupted by a freeze-thaw cycle

[3] = in vivo, 5 mg/kg
[4] = Stability in aqueous 100 mM KPO4 buffer with or without GSH
rats = details: cited from earlier work
[5] = In vitro metabolic stability with rat liver microsomes
mice on high fat diet = details: mouse, in vivo, ip, 3 mg/kg
mice = test: NMY1009 in vivo toxicity study; details: i.p. daily, 1 to 100 mg/kg, seven days
Method: (§1) Figure 2 Determination of NMY1009 toxicity and plasma and tissue concentrations. (A) 7 treatment groups and 1 vehicle group (four mice per each group) were subjected to 7 daily administrations of the drug i.p. and well-being checks were carried out at 6 and 24 h after each treatment. No deaths or adverse reactions at any of the used NMY1009 doses were observed. (B, C) Tissue and plasma kinetics of NMY1009. Mice were injected with 5 mg/kg NMY1009 i.p. NMY1009 concentrations were measured by LC/MS.
7 treatment groups and 1 vehicle group (four mice per each group) were subjected to 7 daily administrations of the drug i.p. NMY1009 was dissolved in 100% DMSO and the injection volume was 30 μl. Well-being checks were carried out at 6 and 24 h after each treatment. The in vivo toxicity study was carried out by Altogen Labs (Austin, TX).

[6] = NMY1009 plasma and tissue concentrations over time by LC/MS; type: in vivo; details: mice, 5 mg/kg i.p.
Method: as §1
To characterize the in vivo pharmacokinetics properties of NMY1009, we measured plasma and tissue concentrations over time after an i.p. injection of 5 mg/kg NMY1009. […] The kinetics of the tissue drug concentrations were similar compared to plasma. The observed decline in the adipose tissue concentrations may be due to drug metabolism or renal excretion. The latter possibility appears less likely as the drug concentration in the kidney was very low. […] However, the adipose tissue drug concentrations decreased over time with a half-life of approximately 3 h.
50 mg of tissue were extracted into 1000 μl of acetonitrile. The entire supernatant was dried and reconstituted into 200 μl of 1:1 acetonitrile/water.

[7] = aqueous buffer, ESI mass spectrometry
[8] = aqueous solution without GSH, 37 °C

T1 sequence (Q8K2B3 43-664): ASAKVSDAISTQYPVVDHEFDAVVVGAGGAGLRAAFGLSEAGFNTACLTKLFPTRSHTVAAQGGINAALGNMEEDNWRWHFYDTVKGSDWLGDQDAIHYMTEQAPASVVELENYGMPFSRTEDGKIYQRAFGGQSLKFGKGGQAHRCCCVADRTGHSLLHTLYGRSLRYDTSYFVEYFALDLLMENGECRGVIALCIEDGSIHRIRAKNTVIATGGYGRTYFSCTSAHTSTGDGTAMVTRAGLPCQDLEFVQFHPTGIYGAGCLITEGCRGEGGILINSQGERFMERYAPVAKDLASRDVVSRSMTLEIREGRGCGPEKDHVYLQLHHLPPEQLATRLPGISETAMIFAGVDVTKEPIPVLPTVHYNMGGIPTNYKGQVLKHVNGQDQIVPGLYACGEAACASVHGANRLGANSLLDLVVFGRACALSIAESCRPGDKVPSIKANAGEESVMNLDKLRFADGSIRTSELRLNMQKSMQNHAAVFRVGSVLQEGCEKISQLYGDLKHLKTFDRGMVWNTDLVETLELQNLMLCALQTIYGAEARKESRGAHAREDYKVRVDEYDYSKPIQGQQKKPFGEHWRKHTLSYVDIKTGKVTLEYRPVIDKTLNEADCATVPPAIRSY
T1 sequence (Q9CQA3 31-282): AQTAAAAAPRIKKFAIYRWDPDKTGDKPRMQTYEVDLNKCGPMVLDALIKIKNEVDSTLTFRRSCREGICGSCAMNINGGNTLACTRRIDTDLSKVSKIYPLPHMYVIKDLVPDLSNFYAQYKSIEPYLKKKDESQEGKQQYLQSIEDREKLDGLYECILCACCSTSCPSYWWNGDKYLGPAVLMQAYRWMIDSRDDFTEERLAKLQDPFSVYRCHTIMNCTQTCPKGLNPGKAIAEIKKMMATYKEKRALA
T1 sequence (Q9CZB0 30-169): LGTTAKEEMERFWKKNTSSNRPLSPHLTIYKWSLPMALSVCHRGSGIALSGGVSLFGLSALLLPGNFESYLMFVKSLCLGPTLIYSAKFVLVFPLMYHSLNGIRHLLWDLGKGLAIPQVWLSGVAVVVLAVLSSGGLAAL
T1 sequence (Q9CXV1 57-159): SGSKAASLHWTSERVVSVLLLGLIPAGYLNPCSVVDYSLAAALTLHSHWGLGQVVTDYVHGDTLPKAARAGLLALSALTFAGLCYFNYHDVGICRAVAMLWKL

O=[N+]([O-])c1ccc(O)c([N+](=O)[O-])c1 [2,4-dinitrophenol, reference compound]
EC50, fold stimulation of oxygen consumption [1]: 9600 nM | inhibitory effect on mitochondrial electron transport chain activity [2]: no inhibitory effect

CCCCCCCCOc1cc([N+](=O)[O-])c(O)c([N+](=O)[O-])c1 [2,6-dinitro-4-(octyloxy)phenol]
EC50, fold stimulation of oxygen consumption [1]: 3700 nM | effect on mitochondrial oxygen consumption at very high concentrations [2]: inhibited mitochondrial oxygen consumption at very high concentrations | effect on oxygen consumption with NADH as substrate [2]: minimal effect | effect on succinate-dependent oxygen consumption after disruption of the inner membrane [2]: inhibited succinate-dependent oxygen consumption | plasma concentration kinetics (in words) ([3]; C57BL/6, mouse): decreased rapidly with much faster kinetics compared to 2,6-dinitrophenol | drug tissue concentration, heart ([3]; mouse): BLQ | drug tissue concentration, kidney ([3]; mouse): BLQ | drug tissue concentration, liver ([3]; mouse): BLQ | health of animals during the study ([3]; mouse): healthy throughout the study duration | tissue concentrations (in words) ([3]; mouse, ip): very low

COc1ccc(NN=C(C#N)C#N)cc1 [C1-CCP]
uncoupling activity (in words) [1]: lower uncoupling activity compared to C4-CCP and C8-CCP

CCCCOc1ccc(NN=C(C#N)C#N)cc1 [C4-CCP]
pEC50 [1]: ~7.00

CCCCCCCCCCCCOc1ccc(NN=C(C#N)C#N)cc1 [C12-CCP]
uncoupling activity (in words) [1]: no activity; also recorded: low uncoupling activity

N#CC(C#N)=NNc1ccc(OC(F)(F)F)cc1 [FCCP, carbonyl cyanide p-trifluoromethoxy-phenylhydrazone, reference compound]
drug turnover in aqueous solution in the absence or presence of 0.2 mM GSH (in words) ([4]; 24 h, 37 °C, 100 mM KPO4): not metabolized significantly | incubation time at which the O-dealkylated metabolite (loss of the trifluoromethyl group) was observed [4, 7]: 24 h | doses causing adverse effects (rats): ≥ 5 mg/kg | doses causing death (rats): higher than 20 mg/kg | stability upon incubation with rat liver microsomes (in words) ([5]; presence and absence of NADPH, up to 45 min, 37 °C): stable

CCCCCCCCOc1ccc(NN=C(C#N)C#N)cc1 [NMY1009, (4-octyloxy-phenyl)carbonhydrazonoyl dicyanide]
pEC50 [1]: ~7.00 | incubation time at which the dealkylated metabolite (loss of the octyl group) was observed [4, 7]: 30 min | time after which one third of the drug was turned over [4, 8]: approximately 1 h | time after which two thirds of the drug were turned over [4, 8]: 6 h | drug remaining at the end of the 24 h incubation ([4]; aqueous solution without GSH, 37 °C, 10 μM): about 18% | Glucose Tolerance Test response vs vehicle (mice on high fat diet): no altered Glucose Tolerance Test response | blood glucose concentrations and other blood markers of metabolic health vs vehicle (mice on high fat diet): no significant differences in blood glucose concentrations and other blood markers of metabolic health | body composition (body weight and fat mass gains) vs vehicle (mice on high fat diet): no changes in the body composition | respiratory exchange ratio and energy expenditure vs vehicle (mice on high fat diet): no differences the respiratory exchange ratio and energy expenditure | serum adiponectin concentrations vs vehicle (mice on high fat diet): decrease in serum adiponectin concentrations | half-life at 1 µM ([5]; rat, microsomes, pH 7.4): ~30 min | deaths or adverse reactions (toxicity) (mice): No deaths or adverse reactions were observed; also recorded: no toxicity | tissue distribution (in words) [6]: highest drug tissue concentrations were found in the different types of adipose tissue | half-life ([6]; mouse, adipose tissue, ip, read-out: half-life of adipose tissue drug concentrations (converted)): ~180 min | Tmax ([6]; mouse, plasma, ip, read-out: time of peak plasma concentration (converted)): 30 min
